Measured values: ChEMBL document CHEMBL6115029, “Discovery of Daraxonrasib (RMC-6236), a Potent and Orally Bioavailable RAS(ON) Multi-selective, Noncovalent Tri-complex Inhibitor for the Treatment of Patients with Multiple RAS-Addicted Cancers” (J Med Chem, 2025)
≈ marks a conversion by molar mass, not a printed value.

How the values were obtained:
[1] = Efflux ratio of apparent permeability in human Caco-2 cells at 5 uM incubated for 2 hrs by LC-MS/MS analysis; type: ADME, cell-based
[2] = system: A-375; assay: Cytotoxicity against human A-375 cells assessed as reduction in cell viability incubated for 120 hrs by CellTiter-Glo luminescence assay; type: functional, cell-based; conditions: A-375, 120 h
[3] = Inhibition of 6His-tagged wildtype KRAS (1 to 169 residues)/GST-tagged GMPPNP-bound BRAF RBD (155 to 229 reisudes)/Cyclophilin A (unknown origin) tri-complex protein-protein interaction incubated for 3 hrs by TR-FERT based disruption assay; design: species or system Homo sapiens
[4] = Apparent permeability across apical to basolateral side in human Caco-2 cells at 5 uM incubated for 2 hrs by LC-MS/MS analysis; type: ADME, cell-based
[5] = system: ASPC1; assay: Cytotoxicity against human ASPC1 cells harboring KRAS G12D mutant cultured as 2D cells assessed as reduction in cell viability incubated for 120 hrs by CellTiter-Glo luminescence assay; type: functional, cell-based; conditions: ASPC1, 120 h
[6] = target: Peptidyl-prolyl cis-trans isomerase A (Homo sapiens, UniProt P62937); assay: Binding affinity to Avi-tagged Cyclophilin A (unknown origin) assessed as dissociation constant by SPR analysis
[7] = Oral bioavailability in female BALB/c mouse blood at 10 mg/kg measured after 24 hrs by LC-MS/MS analysis; type: ADME, organism-based
[8] = Inhibition of 6His-tagged KRAS G12D mutant(1 to 169 residues)/GST-tagged GMPPNP-bound BRAF RBD (155 to 229 reisudes)/Cyclophilin A (unknown origin) tri-complex protein-protein interaction incubated for 3 hrs by TR-FERT based disruption assay; design: species or system Homo sapiens
[9] = Kinetic solubility of compound in PBS at pH 7.4 measured after 5 hrs by UV analysis; type: physicochemical; conditions: read-out: Kinetic_solubility
[10] = Inhibition of 6His-tagged KRAS G12C mutant(1 to 169 residues)/GST-tagged GMPPNP-bound BRAF RBD (155 to 229 reisudes)/Cyclophilin A (unknown origin) tri-complex protein-protein interaction incubated for 3 hrs by TR-FERT based disruption assay; design: species or system Homo sapiens
[11] = Inhibition of ERK1/2 phosphorylation in human NCI-H358 cells harboring KRAS G12C mutant incubated for 4 hrs by AlphaLISA assay; type: cell-based; conditions: NCI-H358, 4 h
[12] = Clearance in female BALB/c mouse blood at 1 mg/kg, iv measured after 24 hrs by LC-MS/MS analysis; type: ADME, organism-based
[13] = system: NCI-H358; assay: Cytotoxicity against human NCI-H358 cells harboring KRAS G12C mutant cultured as 2D cells assessed as reduction in cell viability incubated for 120 hrs by CellTiter-Glo luminescence assay; type: functional, cell-based; conditions: NCI-H358, 120 h
[14] = Metabolic stability in mouse liver microsomes assessed as half-life at 2 uM measured upto 60 mins in presence of NADPH by LC-MS/MS analysis; type: ADME, Microsome
[15] = Inhibition of ERK1/2 phosphorylation in human ASPC1 cells harboring KRAS G12D mutant incubated for 4 hrs by AlphaLISA assay; type: cell-based; conditions: ASPC1, 4 h
[16] = system: CAPAN-1; assay: Cytotoxicity against human CAPAN-1 cells harboring KRAS G12V mutant cultured as 2D cells assessed as reduction in cell viability incubated for 120 hrs by CellTiter-Glo luminescence assay; type: functional, cell-based; conditions: CAPAN-1, 120 h
[17] = Lipophilicity, logD of compound at pH 7.4 by Agilent 1290 II uPLC analysis; type: physicochemical; conditions: buffer
[18] = Inhibition of ERK1/2 phosphorylation in human CAPAN-1 cells harboring KRAS G12V mutant incubated for 4 hrs by AlphaLISA assay; type: cell-based; conditions: CAPAN-1, 4 h
[19] = Inhibition of 6His-tagged KRAS G12V mutant(1 to 169 residues)/GST-tagged GMPPNP-bound BRAF RBD (155 to 229 reisudes)/Cyclophilin A (unknown origin) tri-complex protein-protein interaction incubated for 3 hrs by TR-FERT based disruption assay; design: species or system Homo sapiens
[20] = Oral bioavailability in female BALB/c mouse plasma at 10 mg/kg measured after 24 hrs by LC-MS/MS analysis; type: ADME, organism-based
[21] = Clearance in female BALB/c mouse plasma at 1 mg/kg, iv measured after 24 hrs by LC-MS/MS analysis; type: ADME, organism-based
[22] = system: NCI-H1975; assay: Cytotoxicity against human NCI-H1975 cells harboring wildtype KRAS cultured as 2D cells assessed as reduction in cell viability incubated for 120 hrs by CellTiter-Glo luminescence assay; type: functional, cell-based; conditions: NCI-H1975, 120 h
[23] = Oral bioavailability in female BALB/c mouse at 10 mg/kg measured after 24 hrs by LC-MS/MS analysis; type: ADME, organism-based; conditions: in vivo
[24] = Half-life in female BALB/c mouse at 1 mg/kg, iv measured after 24 hrs by LC-MS/MS analysis; type: ADME, organism-based; conditions: in vivo
[25] = Binding affinity to Cyclophilin A/Avi-tagged KRAS G12C mutant (1 to 169 residues) (unknown origin) assessed as dissociation constant by SPR analysis; design: species or system Homo sapiens
[26] = Clearance in female BALB/c mouse at 1 mg/kg, iv measured after 24 hrs by LC-MS/MS analysis; type: ADME, organism-based; conditions: in vivo
[27] = Binding affinity to Cyclophilin A/Avi-tagged KRAS G12D mutant (1 to 169 residues) (unknown origin) assessed as dissociation constant by SPR analysis; design: species or system Homo sapiens
[28] = Binding affinity to Cyclophilin A/Avi-tagged KRAS G12V mutant (1 to 169 residues) (unknown origin) assessed as dissociation constant by SPR analysis; design: species or system Homo sapiens

Peptidyl-prolyl cis-trans isomerase A, sequence (P62937 whole entry): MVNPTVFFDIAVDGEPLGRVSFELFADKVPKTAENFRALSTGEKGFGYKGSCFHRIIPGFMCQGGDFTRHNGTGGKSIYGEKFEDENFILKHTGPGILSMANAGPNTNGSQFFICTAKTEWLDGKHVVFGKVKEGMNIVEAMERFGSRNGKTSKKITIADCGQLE

Row | SMILES | efflux ratio at 2 h, 5 µM [1] | EC50 [2] [nM] | IC50 [3] [nM] | Papp A→B at 2 h, 5 µM [4] [×10⁻⁶ cm/s] | EC50 [5] [nM] | Kd [6] [nM] | bioavailability [7] [%] | IC50 [8] [nM] | solubility kinetic at 5 h [9] [µM] | IC50 [10] [nM] | EC50 [11] [nM] | clearance [12] [mL/min/kg] | EC50 [13] [nM] | half-life at 2 µM [14] [h] | EC50 [15] [nM] | EC50 [16] [nM] | logD [17] | EC50 [18] [nM] | IC50 [19] [nM] | EC50 [22] [nM] | also measured
1 | CCn1c(-c2cc(N3CC4CC(C3)N4C)cnc2[C@H](C)OC)c2c3cc(ccc31)-c1csc(n1)C[C@H](NC(=O)[C@H]1C[C@@H]1C)C(=O)N1CCC[C@H](N1)C(=O)OCC(C)(C)C2 | 96 | 2980 | 116 | 0.2 | 5.3 | 23 | 5.7 | 272 | 130 (≈ 107 µg/mL) | 53 | 2.1 | 16.7 | 1.7 | > 2 | 4.4 | 2.1 | 3.9 | 0.5 | 71 | – | –
2 | CCn1c(-c2cc(N3CCN(C4CC4)CC3)cnc2[C@H](C)OC)c2c3cc(ccc31)-c1csc(n1)C[C@H](NC(=O)[C@H]1[C@@H]3COC[C@@H]31)C(=O)N1CCC[C@H](N1)C(=O)OCC(C)(C)C2 | 7 | 8360 | 76 | 0.9 | 4.9 | 216 | 63 | 175 | 20 (≈ 17.3 µg/mL) | 31 | 0.9 | 6.67 | 0.8 | 1 | 4.1 | 2.1 | 5.2 | 0.5 | 43 | 1.9 | bioavailability [20]: 88%; clearance [21]: 6.67 mL/min/kg
3 | CCn1c(-c2cccnc2[C@H](C)OC)c2c3cc(ccc31)-c1csc(n1)C[C@H](NC(=O)[C@H](C(C)C)N(C)C(C)=O)C(=O)N1CCC[C@H](N1)C(=O)OCC(C)(C)C2 | 13.6 | > 10000 | 4920 | 0.02 | ≥ 715 | 313 | – | ≥ 21200 | 6 (≈ 4.72 µg/mL) | 1970 | 116 | – | 199 | 0.1 | 857 | 149 | – | 32 | 3550 | 57 | bioavailability [23]: ≤ 0.4%; half-life [24]: 0.6 h; Kd [25]: 1540 nM; clearance [26]: 95 mL/min/kg; Kd [27]: 5050 nM; Kd [28]: 2700 nM
4 | CCn1c(-c2cccnc2[C@H](C)OC)c2c3cc(ccc31)-c1cccc(c1)C[C@H](NC(=O)[C@H](C(C)C)N(C)C(C)=O)C(=O)N1CCC[C@H](N1)C(=O)OCC(C)(C)C2 | – | – | – | – | 4410 | 1150 | – | 26100 | – | 2040 | – | – | 1530 | – | – | 1140 | – | – | 3520 | > 10000 | Kd [25]: 2820 nM; Kd [27]: 10700 nM; Kd [28]: 4930 nM
5 | CCn1c(-c2cc(N3CCN(C4COC4)CC3)cnc2[C@H](C)OC)c2c3cc(ccc31)-c1csc(n1)C[C@H](NC(=O)[C@H]1C[C@@H]1C)C(=O)N1CCC[C@H](N1)C(=O)OCC(C)(C)C2 | 12 | > 10000 | 103 | 0.6 | 4.1 | 77 | 49 | 249 | 56 (≈ 47.8 µg/mL) | 40 | 2.9 | 6.67 | 0.8 | > 2 | 4.2 | 1.8 | – | 0.7 | 55 | 0.9 | bioavailability [20]: 27%; clearance [21]: 51.7 mL/min/kg
6 | CCn1c(-c2cc(N3CCN(CCOC)CC3)cnc2[C@H](C)OC)c2c3cc(ccc31)-c1csc(n1)C[C@H](NC(=O)[C@H]1C[C@@H]1C)C(=O)N1CCC[C@H](N1)C(=O)OCC(C)(C)C2 | 9 | > 10000 | 152 | 1 | 6.1 | 130 | 71 | 385 | 45 (≈ 38.5 µg/mL) | 54 | 3.4 | 6.67 | 1.8 | 1.72 | 7.7 | 2.8 | 4.7 | 0.8 | 78 | 9.4 | bioavailability [20]: 57%; clearance [21]: 30 mL/min/kg
7 | CCn1c(-c2cccnc2[C@H](C)OC)c2c3cc(ccc31)-c1csc(n1)C[C@H](NC(=O)C1CC1)C(=O)N1CCC[C@H](N1)C(=O)OCC(C)(C)C2 | 1.6 | 5950 | 615 | 4.3 | 852 | 18700 | – | 1950 | 15 (≈ 10.5 µg/mL) | 208 | 166 | – | 403 | 1.57 | 3410 | 485 | 4.8 | 147 | 301 | 188 | bioavailability [23]: 53%; half-life [24]: 2 h; clearance [26]: 5 mL/min/kg
